Laboratory results reported in patent publication US10160762B2, “6-alkyl dihydropyrazolopyrimidinone compounds as PDE2 inhibitors” (Merck Sharp & Dohme Corp., priority 2015, dated 2018).
Where two headings read alike, the source gives them in different places.

Biological target: T1, human PDE2A1 (Homo sapiens, UniProt O00408)
T1 construct: GST; purchased BPS Bioscience (San Diego, Calif.) 60020; host or cells: insect cells
Assay: IMAP FP PDE assay, human PDE2A1
Type: biochemical
Summary of the method: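 FP (IMAP) read after 60 min room-temperature reaction of insect-cell GST-human PDE2A1 with 50 nM FAM-cAMP plus 1000 nM cGMP (pH 7.2 Tris, Mg2+, DTT). Compounds titrated 3-fold over ten points. Apparent Ki derived assuming KM of 10,000 nM; enzyme at 20% substrate turnover.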

[1] = Lab A, read-out: Human PDE2 Ki (nM) Lab A
[2] = Lab B, read-out: Human PDE2 Ki (nM) Lab B

T1 sequence (O00408 1-920 isoform O00408-2): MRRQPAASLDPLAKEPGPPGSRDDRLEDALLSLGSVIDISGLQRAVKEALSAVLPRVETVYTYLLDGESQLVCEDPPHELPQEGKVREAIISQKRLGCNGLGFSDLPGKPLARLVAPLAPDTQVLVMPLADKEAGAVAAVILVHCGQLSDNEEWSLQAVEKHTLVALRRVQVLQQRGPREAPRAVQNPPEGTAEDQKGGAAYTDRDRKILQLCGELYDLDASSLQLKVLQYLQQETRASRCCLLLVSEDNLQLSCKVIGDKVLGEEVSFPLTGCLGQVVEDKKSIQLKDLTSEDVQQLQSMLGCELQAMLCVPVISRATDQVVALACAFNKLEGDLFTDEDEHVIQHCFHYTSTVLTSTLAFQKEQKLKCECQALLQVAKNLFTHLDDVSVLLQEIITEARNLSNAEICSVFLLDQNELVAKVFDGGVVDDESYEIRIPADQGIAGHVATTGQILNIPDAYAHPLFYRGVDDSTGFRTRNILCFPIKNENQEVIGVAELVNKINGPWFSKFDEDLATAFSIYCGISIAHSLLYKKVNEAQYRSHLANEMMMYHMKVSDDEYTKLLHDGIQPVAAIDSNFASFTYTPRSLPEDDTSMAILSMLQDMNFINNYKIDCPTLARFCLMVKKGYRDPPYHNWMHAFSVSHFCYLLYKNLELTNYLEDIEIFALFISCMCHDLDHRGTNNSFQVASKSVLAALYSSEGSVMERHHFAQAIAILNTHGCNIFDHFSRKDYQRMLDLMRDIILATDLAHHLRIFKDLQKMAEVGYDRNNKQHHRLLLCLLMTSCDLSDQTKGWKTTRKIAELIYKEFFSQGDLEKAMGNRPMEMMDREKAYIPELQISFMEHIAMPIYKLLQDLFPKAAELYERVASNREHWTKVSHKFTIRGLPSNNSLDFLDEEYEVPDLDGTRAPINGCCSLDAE

Row | Ki [1] [nM] | Ki [2] [nM] | Structure (SMILES)
1 | 47 | – | Cc1nn(C(C)c2ccc(C(F)(F)F)cc2)c2nc(-c3cnc4ccccc4n3)[nH]c(=O)c12 (stereo not drawn) [Example 50, 3-Methyl-6-quinoxalin-2-yl-1-{1-[4-(trifluoromethyl)phenyl]ethyl}-1,5-dihydro-4H-pyrazolo[3,4-d]pyrimidin-4-one]
2 | 50 | – | Cc1nn(C(C)c2ccc(C(F)(F)F)cc2)c2nc(CF)[nH]c(=O)c12 (stereo not drawn) [Example 51, 6-(Fluoromethyl)-3-methyl-1-{1-[4-(trifluoromethyl)phenyl]ethyl}-1,5-dihydro-4H-pyrazolo[3,4-d]pyrimidin-4-one]
3 | 18 | – | Cc1nn(C(C)c2ccc(C(F)(F)F)cc2)c2nc(-c3ccccn3)[nH]c(=O)c12 (stereo not drawn) [Example 52, 3-Methyl-6-pyridin-2-yl-1-{1-[4-(trifluoromethyl)phenyl]ethyl}-1,5-dihydro-4H-pyrazolo[3,4-d]pyrimidin-4-one]
4 | 17 | – | Cc1nn(C(C)c2ccc(C(F)(F)F)cc2)c2nc(-c3cnn(C)c3)[nH]c(=O)c12 (stereo not drawn) [Example 53, 3-Methyl-6-(1-methyl-1H-pyrazol-4-yl)-1-{1-[4-(trifluoromethyl)phenyl]ethyl}-1,5-dihydro-4H-pyrazolo[3,4-d]pyrimidin-4-one]
5 | 12 | – | Cc1nc(-c2nc3c(c(C)nn3C(C)c3ccc(C(F)(F)F)cc3)c(=O)[nH]2)c(C)o1 (stereo not drawn) [Example 54, 6-(2,5-Dimethyl-1,3-oxazol-4-yl)-3-methyl-1-{1-[4-(trifluoromethyl)phenyl]ethyl}-1,5-dihydro-4H-pyrazolo[3,4-d]pyrimidin-4-one]
6 | – | 1.1 | Cc1nc2c(c(CO)nn2[C@@H](C)c2ccc(C(C)(C)C)cc2)c(=O)[nH]1 [Example 157, (S)-1-(1-(4-tert-Butylphenyl)ethyl)-3-(hydroxymethyl)-6-methyl-1H-pyrazolo[3,4-d]pyrimidin-4(5H)-one]
7 | – | 3.1 | Cc1nc2c(c(CO)nn2[C@@H](C)c2ccc(OC(F)(F)F)cc2)c(=O)[nH]1 [Example 158, (S)-3-(Hydroxymethyl)-6-methyl-1-(1-(4-(trifluoromethoxy)phenyl)ethyl)-1H-pyrazolo[3,4-d]pyrimidin-4(5H)-one]
8 | – | 2 | Cc1nc2c(c(CO)nn2[C@H](c2ccc(C(C)(C)C)cc2)C(C)C)c(=O)[nH]1 [Example 159, (S)-1-(1-(4-tert-Butylphenyl)-2-methylpropyl)-3-(hydroxymethyl)-6-methyl-1H-pyrazolo[3,4-d]pyrimidin-4(5H)-one]
9 | – | 0.36 | Cc1nc2c(c(CO)nn2[C@@H](c2ccc(C(C)(C)C)cc2)C(C)C)c(=O)[nH]1 [Example 160, (R)-1-(1-(4-tert-Butylphenyl)-2-methylpropyl)-3-(hydroxymethyl)-6-methyl-1H-pyrazolo[3,4-d]pyrimidin-4(5H)-one]
10 | ~5.9 | 9.5 | Cc1nc2c(c(C(F)F)nn2C(C)c2ccc(C(F)(F)F)cc2)c(=O)[nH]1 (stereo not drawn) [Example 166, 3-(Difluoromethyl)-6-methyl-1-{1-[4-(trifluoromethyl)phenyl]ethyl}-1,5-dihydro-4H-pyrazolo[3,4-d]pyrimidin-4-one]
11 | – | 1.8 | Cc1nc2c(c(C(F)F)nn2C(c2ccc(OC(F)(F)F)c(F)c2)C2CC2)c(=O)[nH]1 (stereo not drawn) [Example 193, 1-(Cyclopropyl(3-fluoro-4-(trifluoromethoxy)phenyl)methyl)-3-(difluoromethyl)-6-methyl-1H-pyrazolo[3,4-d]pyrimidin-4(5H)-one]
12 | – | 21 | COc1ccc(C(=O)c2nc3c(c(C(F)F)nn3C(C)c3ccc(C(F)(F)F)cc3)c(=O)[nH]2)cc1OC (stereo not drawn) [Example 198, 3-(Difluoromethyl)-6-(3,4-dimethoxybenzoyl)-1-(1-(4-(trifluoromethyl)phenyl)ethyl)-1H-pyrazolo[3,4-d]pyrimidin-4(5H)-one]
13 | – | 2.6 | Cc1nc2c(c(CF)nn2C(c2ccc(C(F)(F)F)cc2)C(F)(F)F)c(=O)[nH]1 (stereo not drawn) [Example 201, 3-(Fluoromethyl)-6-methyl-1-(2,2,2-trifluoro-1-(4-(trifluoromethyl)phenyl)-ethyl)-1H-pyrazolo[3,4-d]pyrimidin-4(5H)-one]
14 | – | 2.9 | Cc1nc2c(c(CF)nn2C2(c3ccc(C(F)(F)F)cc3)CCC2)c(=O)[nH]1 [Example 202, 3-(Fluoromethyl)-6-methyl-1-(1-(4-(trifluoromethyl)phenyl)cyclobutyl)-1H-pyrazolo[3,4-d]pyrimidin-4(5H)-one]
15 | 8.3 | 17 | Cc1ccc(C(C)n2nc(CF)c3c(=O)[nH]c(C)nc32)cc1 (stereo not drawn) [Example 203, 3-(Fluoromethyl)-6-methyl-1-(1-p-tolylethyl)-1H-pyrazolo[3,4-d]pyrimidin-4(5H)-one]
16 | 2.7 | – | Cc1nc2c(c(CF)nn2C(C)c2ccc(C(F)(F)F)cc2)c(=O)[nH]1 (stereo not drawn) [Example 204, 3-(Fluoromethyl)-6-methyl-1-{1-[4-(trifluoromethyl)phenyl]ethyl}-1,5-dihydro-4H-pyrazolo[3,4-d]pyrimidin-4-one]
17 | – | 3.4 | COCc1nc2c(c(CF)nn2C(C)c2ccc(C(F)(F)F)cc2)c(=O)[nH]1 (stereo not drawn) [Example 205, 3-(Fluoromethyl)-6-(methoxymethyl)-1-{1-[4-(trifluoromethyl)phenyl]ethyl}-1,5-dihydro-4H-pyrazolo[3,4-d]pyrimidin-4-one]
18 | 1.5 | 3.6 | Cc1nc2c(c(CF)nn2C(C)c2ccc(C(F)(F)F)c(F)c2)c(=O)[nH]1 (stereo not drawn) [Example 230, 1-(1-(3-Fluoro-4-(trifluoromethyl)phenyl)ethyl)-3-(fluoromethyl)-6-methyl-1H-pyrazolo[3,4-d]pyrimidin-4(5H)-one]
19 | 0.39 | 0.97 | Cc1nc2c(c(CF)nn2C(c2ccc(C(F)(F)F)cc2)C2CC2)c(=O)[nH]1 (stereo not drawn) [Example 231, 1-(cyclopropyl(4-(trifluoromethyl)phenyl)methyl)-3-(fluoromethyl)-6-methyl-1H-pyrazolo[3,4-d]pyrimidin-4(5H)-one]
20 | 0.27 | 0.7 | Cc1nc2c(c(CCl)nn2C(c2ccc(C(F)(F)F)cc2)C2CC2)c(=O)[nH]1 (stereo not drawn) [Example 232, 3-(chloromethyl)-1-(cyclopropyl(4-(trifluoromethyl)phenyl)methyl)-6-methyl-1H-pyrazolo[3,4-d]pyrimidin-4(5H)-one]
21 | 70 | – | Cc1nc2c(c(C(C)(C)O)nn2C(C)c2ccc(C(F)(F)F)cc2)c(=O)[nH]1 (stereo not drawn) [Example 326, 3-(1-Hydroxy-1-methylethyl)-6-methyl-1-{1-[4-(trifluoromethyl)phenyl]ethyl}-1,5-dihydro-4H-pyrazolo[3,4-d]pyrimidin-4-one]
22 | 92 | – | Cc1nc2c(c(C(O)C(F)(F)F)nn2C(C)c2ccc(C(F)(F)F)cc2)c(=O)[nH]1 (stereo not drawn) [Example 327, 6-Methyl-3-(2,2,2-trifluoro-1-hydroxyethyl)-1-{1-[4-(trifluoromethyl)phenyl]ethyl}-1,5-dihydro-4H-pyrazolo[3,4-d]pyrimidin-4-one]
23 | ~11 | 31 | Cc1nc2c(c(C(C)O)nn2C(C)c2ccc(C(F)(F)F)cc2)c(=O)[nH]1 (stereo not drawn) [Example 328, 3-(1-Hydroxyethyl)-6-methyl-1-{1-[4-(trifluoromethyl)phenyl]ethyl}-1,5-dihydro-4H-pyrazolo[3,4-d]pyrimidin-4-one]
24 | 73 | – | CCC(CCCc1ccccc1)n1nc(C)c2c(=O)[nH]c(C)nc21 (stereo not drawn) [Example 338, 1-(1-ethyl-4-phenylbutyl)-3,6-dimethyl-1,5-dihydro-4H-pyrazolo[3,4-d]pyrimidin-4-one]
